Assay results: patent US20110092433A1, “FGF9-RELATED METHODS FOR TREATING ANXIETY” (THE BOARD OF TRUSTEES OF THE LELAND STANFORD JUNIOR …, priority 2007, published 2011)

Tests used:
Rodents [1] = assay: Forced swim test (FST) after microinjection; format: in vivo; settings: acute microinjection, versus controls
Source text: (§1) This is also in the same direction as the FGF2 data, consistent with the fact that both FGF2 and NCAM interact with the FGF receptor.
(§2) These observations are nevertheless consistent with the conclusions drawn from the microinjection studies above.

Rodents [2] = assay: Elevated plus maze (EPM) after microinjection; format: in vivo; settings: for time in the center quadrant of EPM / time in the closed arms of EPM / time in the open arms of EPM: acute microinjection, versus controls
Source text: as §1, §2

Sprague-Dawley rats [3] = assay: Morris water maze in adults after early postnatal FGF2; format: in vivo, rat; settings: FGF2 20 ng/g s.c. the day after birth, tested as adults
Description: (§3) Methods. Sprague-Dawley rats were injected with either vehicle or FGF2 (20 ng/g, s.c.) the day after birth and sacrificed after Morris water maze testing as adults. We assessed changes in gene expression using both a candidate approach and a gene discovery approach with laser-capture microdissection of the dentate gyrus followed by microarray analyses.

[4] = system: hippocampal gene expression; assay: Hippocampal gene expression in adults after early postnatal FGF2 (histochemical and RNA expression assays); format: in vivo, rat; settings: adult rats, FGF2 20 ng/g s.c. the day after birth
Description: as §3

rats = assay: Elevated plus-maze (EPM) and light-dark (LD) anxiety test after chronic FGF2; format: in vivo, rat; settings: FGF2 5 ng/g i.p. every 48 hours for 3 weeks
Description: Anxiety disorders have a high comorbidity with other neuropsychiatric disorders including Major Depression (MD). […] Rats were placed into “high anxiety” (LR) or “low anxiety” (HR) groups based on their behavior in a variety of motor and behavioral tests. Both groups of animals were administered either FGF2 (5 ng/g) or vehicle by intraperitoneal injection every 48 hours for 3 weeks. One day after the last FGF2 injection, all animals were tested in the elevated plus-maze (EPM) and light-dark (LD) anxiety test.
The apparatus for the EPM test is constructed of black Plexiglass with […] (70 cm from the floor, 45 cm long, and 12 cm wide). Illumination is provided by a 40-watt desk lamp facing a wall and placed behind one of the closed arms. The scientists put the animal inside the system. Animals that are less anxious spend more time in the open arms whereas animals that are more anxious spend less time in the open arms.
The LD test is conducted in a 30×60×30-cm Plexiglas shuttle box with a translucent cover. Each box is divided into two equal-sized compartments by a wall with a 12 cm-wide open door. One compartment is painted white and brightly illuminated, and the other is painted black with very dim light. The time each rat spends in each compartment is monitored by rows of five photocells located 2.5 cm above the grid floor of each compartment. […]

[5] = system: FGFR2 and FGFR3 exon IIIc:IIIb splice variant ratio; assay: Real time RT-PCR of exon IIIc:IIIb splice variant ratio in frontal cortex; format: in vivo, rat; settings: FGF2 5 ng/g i.p. every 48 hours for three weeks, NS or S group, P>0.1
Description: Animals. Twenty-four male Sprague-Dawley rats weighing 220-250g were ordered from Charles River (Wilmington, Mass.) and remained undisturbed for one week to acclimatize to housing conditions. The animals were housed in pairs on a 12 h light-dark cycle (lights on 6:00 A.M.) with food and water available ad libitum. All experiments were conducted in accordance with the NIH Guide for the Care and Use of Animals and the University Committee on the Use and Care of Animals.
FGF2 injection treatments and chronic unpredictable stress (CUS) conditions. […]
Total RNA extraction. […] Using the Bioanalyzer's concentration readings, the samples were normalized to 25 ng/μL of total RNA per subject and stored at −80° C.
cDNA synthesis. cDNA was synthesized using the iScript cDNA Synthesis Kit (Bio-Rad, Hercules, Calif.). […] The double-stranded cDNA solutions were then analyzed for quality and concentration using Invitrogen's Quant-iT PicoGreen dsDNA kit. […] The fluorescently labeled samples were analyzed with a 1420 Victor^2 Multilabel Counter (EG&G Wallac, Wellesley, Mass.) using the basic Fluorescein protocol. […]
Real time RT-PCR primer design. […] Exon sequences were analyzed using NCBI's nucleotide and protein BLAST and were matched with their corresponding protein products within the receptor structures (FIG. 11). […]

Sprague-Dawley rats [6] = assay: Forced swim testing after chronic FGF2; format: in vivo, rat; settings: chronic FGF2 administration
Description: FGF2 injection treatments and chronic unpredictable stress (CUS) conditions. Half of the rats (n=12) were administered vehicle (0.1M PBS with 100 μg/mL bovine serum albumin), and the other half (n=12) were administered human recombinant FGF2 dissolved in vehicle in 5 ng/g dosages (Sigma, St. Louis, Mo.) every 48 hours for three weeks. All treatments were injected intra-peritonealy. During the same three week period as the FGF2 treatments, the vehicle group was either handled (n=6) or exposed to CUS (n=6). Likewise, the FGF2 injected group was either handled (n=6) or exposed to CUS (n=6). The animals were exposed to the following chronic unpredictable stressors (described in Isgor et al. (2004)): ether (30 s), cold (2 h), noise (15 m), isolation (24 h), or restraint (2 h). The stressors were randomized to avoid habituation; sessions occurred once each day in either the morning or afternoon. The 2×2 (condition by treatment) design divided the subjects into nonstressed/vehicle (NS/V), nonstressed/FGF2 injection (NS/F), stressed/vehicle (S/V), and stressed/FGF2 injection (S/F) groups.
Forced swim testing. To test for possible FGF2 injection effects on anti-depressant behavior for other studies, all animals were subjected to forced swim testing according to Lucki (1997) 24 h after the termination of the FGF2 treatments and CUS conditions.

Substance | depression-like behavior (FST) (Rodents [1]) | immobility in FST (Rodents [1]) | swimming in FST (Rodents [1]) | time in the center quadrant of EPM (Rodents [2]) | time in the closed arms of EPM (Rodents [2]) | time in the open arms of EPM (Rodents [2]) | also measured
HFKDPKRLY [FGF system peptide inhibitor] | increased depression-like behavior | more immobility | less swimming | significantly more time | less time | equal time | climbing in FST (Rodents [1]): significantly less climbing
FGF2: human recombinant FGF2 (Sigma), fibroblast growth factor 2 | less depression-like behavior | less immobility | more swimming | – | significantly more time | less time | anxiety-like behavior (EPM) (Rodents [2]; acute injection): increased; time to find a hidden platform in Morris Water maze test (average) (Sprague-Dawley rats [3]): 20 s; performance in learning and memory tests (Sprague-Dawley rats [3]; versus vehicle): significantly better; expression of CCK [4]: increased; expression of GAP-43 [4]: increased; expression of NCAM [4]: decreased; expression of Rgs4 [4]: increased; expression of SST [4]: increased; expression of Vgf [4]: increased; expression of trkB [4]: increased; anxiety versus vehicle (rats): less anxious; anxiety-reducing effects in innately more anxious (LR) rats (rats; LR versus HR): more pronounced; effect on exon IIIc:IIIb ratio [5]: did not alter; depression-like behavior (Sprague-Dawley rats [6]): decreases depression-like behavior
EVYVVAENQQGKSKA [NCAM] | less depression-like behavior | less immobility | – | significantly less time | more time (although not signficantly more time) | less time | –
